# System: NCIH929.1 cells
# Experiment: Cell viability assay for Table 2 (CellTiter-Glo 2.0, ATP quantification, 96 hr)
# Type: cell-based
# Settings: 96 h, NCIH929.1 cell viability, 96 hr, top concentration 1 μM, 14 points half log titration; read-out: IC50
# From the text: Cell Viability Assay for Table 2
# CellTiter-Glo® 2.0 Assay was purchased from Promega (Madison, Wis., USA). NCIH929.1 cell line was purchased from ATCC (Manassas, Va., USA). Cell culture flasks and 384-well microplates were acquired from VWR (Radnor, Pa., USA).
row,Compound,IC50 [nM]
1,"CC(C)(CF)C(=O)N1CCC(C)(n2cc(Cc3ccc4c5c(cccc35)C(=O)N4C3CCC(=O)NC3=O)cn2)CC1 (stereo not drawn) [Compound 95, 3-(6-((1-(1-(3-fluoro-2,2-dimethylpropanoyl)-4-methylpiperidin-4-yl)-1H-pyrazol-4-yl)methyl)-2-oxobenzo[cd]indol-1(2H)-yl)piperidine-2,6-dione]",< 1
2,"CC(C)(F)C(=O)N1CCC(C)(n2cc(Cc3ccc4c5c(cccc35)C(=O)N4C3CCC(=O)NC3=O)cn2)CC1 (stereo not drawn) [Compound 96, 3-(6-((1-(1-(2-fluoro-2-methylpropanoyl)-4-methylpiperidin-4-yl)-1H-pyrazol-4-yl)methyl)-2-oxobenzo[cd]indol-1(2H)-yl)piperidine-2,6-dione]",< 1
3,"CC(C)(Cl)C(=O)N1CCC(C)(n2cc(Cc3ccc4c5c(cccc35)C(=O)N4C3CCC(=O)NC3=O)cn2)CC1 (stereo not drawn) [Compound 97, 3-(6-((1-(1-(2-chloro-2-methylpropanoyl)-4-methylpiperidin-4-yl)-1H-pyrazol-4-yl)methyl)-2-oxobenzo[cd]indol-1(2H)-yl)piperidine-2,6-dione]",< 1
4,"CC(C)(CO)C(=O)N1CCC(C)(n2cc(Cc3ccc4c5c(cccc35)C(=O)N4C3CCC(=O)NC3=O)cn2)CC1 (stereo not drawn) [Compound 98, 3-(6-((1-(1-(3-hydroxy-2,2-dimethylpropanoyl)-4-methylpiperidin-4-yl)-1H-pyrazol-4-yl)methyl)-2-oxobenzo[cd]indol-1(2H)-yl)piperidine-2,6-dione]",< 1
5,"CC1(CN2CCC(C)(n3cc(Cc4ccc5c6c(cccc46)C(=O)N5C4CCC(=O)NC4=O)cn3)CC2)CC1 (stereo not drawn) [Compound 100, 3-(6-((1-(4-methyl-1-((1-methylcyclopropyl)methyl)piperidin-4-yl)-1H-pyrazol-4-yl)methyl)-2-oxobenzo[cd]indol-1(2H)-yl)piperidine-2,6-dione]",< 1
6,"COC1(CN2CCC(C)(n3cc(Cc4ccc5c6c(cccc46)C(=O)N5C4CCC(=O)NC4=O)cn3)CC2)CC1 (stereo not drawn) [Compound 101, 3-(6-((1-(1-((1-methoxycyclopropyl)methyl)-4-methylpiperidin-4-yl)-1H-pyrazol-4-yl)methyl)-2-oxobenzo[cd]indol-1(2H)-yl)piperidine-2,6-dione]",< 1
7,"CC1(n2cc(Cc3ccc4c5c(cccc35)C(=O)N4C3CCC(=O)NC3=O)cn2)CCN(CC2(C#N)CC2)CC1 (stereo not drawn) [Compound 102, 1-((4-(4-((1-(2,6-dioxopiperidin-3-yl)-2-oxo-1,2-dihydrobenzo[cd]indol-6-yl)methyl)-1H-pyrazol-1-yl)-4-methylpiperidin-1-yl)methyl)cyclopropane-1-carbonitrile]",< 1
8,"COC1(CN2CCC(C)(n3cc(Cc4ccc5c6c(cccc46)C(=O)N5C4CCC(=O)NC4=O)cn3)CC2)CCC1 (stereo not drawn) [Compound 103, 3-(6-((1-(1-((1-methoxycyclobutyl)methyl)-4-methylpiperidin-4-yl)-1H-pyrazol-4-yl)methyl)-2-oxobenzo[cd]indol-1(2H)-yl)piperidine-2,6-dione]",< 1
9,"CC(C)(C)CN1CCC(C)(n2cc(Cc3ccc4c5c(cccc35)C(=O)N4C3CCC(=O)NC3=O)cn2)CC1 (stereo not drawn) [Compound 104, 3-(6-((1-(4-methyl-1-neopentylpiperidin-4-yl)-1H-pyrazol-4-yl)methyl)-2-oxobenzo[cd]indol-1(2H)-yl)piperidine-2,6-dione]",< 1
10,"CC1(n2cc(Cc3ccc4c5c(cccc35)C(=O)N4C3CCC(=O)NC3=O)cn2)CCN(CC2(C(F)(F)F)CC2)CC1 (stereo not drawn) [Compound 105, 3-(6-((1-(4-methyl-1-((1-(trifluoromethyl)cyclopropyl)methyl)piperidin-4-yl)-1H-pyrazol-4-yl)methyl)-2-oxobenzo[cd]indol-1(2H)-yl)piperidine-2,6-dione]",< 1
11,"CC1(n2cc(Cc3ccc4c5c(cccc35)C(=O)N4C3CCC(=O)NC3=O)cn2)CCN(CC2(F)CC2)CC1 (stereo not drawn) [Compound 106, 3-(6-((1-(1-((1-fluorocyclopropyl)methyl)-4-methylpiperidin-4-yl)-1H-pyrazol-4-yl)methyl)-2-oxobenzo[cd]indol-1(2H)-yl)piperidine-2,6-dione]",< 1
12,"CC(C)(C)OC(=O)N1CCN(Cc2ccc(Cc3ccc4c5c(cccc35)C(=O)N4C3CCC(=O)NC3=O)cc2)CC1 (stereo not drawn) [Compound 107, tert-butyl 4-(4-((1-(2,6-dioxopiperidin-3-yl)-2-oxo-1,2-dihydrobenzo[cd]indol-6-yl)methyl)benzyl)piperazine-1-carboxylate]",< 1
13,"CC(=O)N1CCN(Cc2ccc(Cc3ccc4c5c(cccc35)C(=O)N4C3CCC(=O)NC3=O)cc2)CC1 (stereo not drawn) [Compound 108, 3-(6-(4-((4-acetylpiperazin-1-yl)methyl)benzyl)-2-oxobenzo[cd]indol-1(2H)-yl)piperidine-2,6-dione]",< 1
14,"O=C1CCC(N2C(=O)c3cccc4c(Cc5ccc(CN6CCN(S(=O)(=O)CC(F)(F)F)CC6)cc5)ccc2c34)C(=O)N1 (stereo not drawn) [Compound 109, 3-(2-oxo-6-(4-((4-((2,2,2-trifIuoroethyl)sulfonyl)piperazin-1-yl)methyl)benzyl)benzo[cd]indol-1(2H)-yl)piperidine-2,6-dione]",< 1
15,"CC1(C(=O)N2CCN(Cc3ccc(Cc4ccc5c6c(cccc46)C(=O)N5C4CCC(=O)NC4=O)cc3)CC2)CCC1 (stereo not drawn) [Compound 110, 3-(6-(4-((4-(1-methylcyclobutane-1-carbonyl)piperazin-1-yl)methyl)benzyl)-2-oxobenzo[cd]indol-1(2H)-yl)piperidine-2,6-dione]",< 1
16,"O=C1CCC(N2C(=O)c3cccc4c(Cc5ccc(CN6CCN(C(=O)c7ccccc7)CC6)cc5)ccc2c34)C(=O)N1 (stereo not drawn) [Compound 111, 3-(6-(4-((4-benzoylpiperazin-1-yl)methyl)benzyl)-2-oxobenzo[cd]indol-1(2H)-yl)piperidine-2,6-dione]",< 1
17,"O=C1CCC(N2C(=O)c3cccc4c(Cc5ccc(CN6CCN(C(=O)C7CC7)CC6)cc5)ccc2c34)C(=O)N1 (stereo not drawn) [Compound 112, 3-(6-(4-((4-(cyclopropanecarbonyl)piperazin-1-yl)methyl)benzyl)-2-oxobenzo[cd]indol-1(2H)-yl)piperidine-2,6-dione]",< 1
18,"O=C1CCC(N2C(=O)c3cccc4c(Cc5ccc(CN6CCN(CC7CC7)CC6)cc5)ccc2c34)C(=O)N1 (stereo not drawn) [Compound 113, 3-(6-(4-((4-(cyclopropylmethyl)piperazin-1-yl)methyl)benzyl)-2-oxobenzo[cd]indol-1(2H)-yl)piperidine-2,6-dione]",< 1
19,"CN1CCN(Cc2ccc(Cc3ccc4c5c(cccc35)C(=O)N4C3CCC(=O)NC3=O)cc2)CC1 (stereo not drawn) [Compound 114, 3-(6-(4-((4-methylpiperazin-1-yl)methyl)benzyl)-2-oxobenzo[cd]indol-1(2H)-yl)piperidine-2,6-dione]",< 1
20,"O=C1CCC(N2C(=O)c3cccc4c(Cc5ccc(CN6CC7CCC(C6)O7)cc5)ccc2c34)C(=O)N1 (stereo not drawn) [Compound 115, 3-(6-(4-((8-oxa-3-azabicyclo[3.2.1]octan-3-yl)methyl)benzyl)-2-oxobenzo[cd]indol-1(2H)-yl)piperidine-2,6-dione]",< 1
21,"CN1CCN(Cc2ccc(Cc3ccc4c5c(cccc35)C(=O)N4C3CCC(=O)NC3=O)cc2)CC1=O (stereo not drawn) [Compound 116, 3-(6-(4-((4-mcthyl-3-oxopiperazin-1-yl)methyl)benzyl)-2-oxobenzo[cd]indol-1(2H)-yl)piperidme-2,6-dione]",< 1
22,"O=C1CCC(N2C(=O)c3cccc4c(Cc5ccc(CN6Cc7ccccc7C6)cc5)ccc2c34)C(=O)N1 (stereo not drawn) [Compound 117, 3-(6-(4-(isoindolin-2-ylmethyl)benzyl)-2-oxobenzo[cd]indol-1(2H)-yl)piperidine-2,6-dione]",< 1
23,"O=C1CCC(N2C(=O)c3cccc4c(Cc5ccc(CN6CCOc7ccccc7C6)cc5)ccc2c34)C(=O)N1 (stereo not drawn) [Compound 118, 3-(6-(4-((2,3-dihydrobenzo[f][1,4]oxazepin-4(5H)-yl)methyl)benzyl)-2-oxobenzo[cd]indol-1(2H)-yl)piperidine-2,6-dione]",< 1
24,"O=C1CCC(N2C(=O)c3cccc4c(Cc5ccc(CN6CCOC(c7ccc(F)cc7)C6)cc5)ccc2c34)C(=O)N1 (stereo not drawn) [Compound 119, 3-(6-(4-((2-(4-fluorophenyl)morpholino)methyl)benzyl)-2-oxobenzo[cd]indol-1(2H)-yl)piperidine-2,6-dione]",< 1
25,"O=C1CCC(N2C(=O)c3cccc4c(Cc5ccc(CN6CC(Oc7ccc(F)cc7)C6)cc5)ccc2c34)C(=O)N1 (stereo not drawn) [Compound 120, 3-(6-(4-((3-(4-fluorophenoxy)azetidin-1-yl)methyl)benzyl)-2-oxobenzo[cd]indol-1(2H)-yl)piperidine-2,6-dione]",< 1
26,"O=C1CCC(N2C(=O)c3cccc4c(Cc5ccc(CN6CCn7c(nnc7C(F)(F)F)C6)cc5)ccc2c34)C(=O)N1 (stereo not drawn) [Compound 121, 3-(2-oxo-6-(4-((3-(trifluoromethyl)-5,6-dihydro-[1,2,4]triazolo[4,3-a]pyrazin-7(8H)-yl)methyl)benzyl)benzo[cd]indol-1(2H)-yl)piperidine-2,6-dione]",< 1
27,"O=C1CCC(N2C(=O)c3cccc4c(Cc5ccc(CN6CCS(=O)(=O)CC6)cc5)ccc2c34)C(=O)N1 (stereo not drawn) [Compound 122, 3-(6-(4-((1,4-dioxidothiomorpholino)methyl)benzyl)-2-oxobenzo[cd]indol-1(2H)-yl)piperidine-2,6-dione]",< 1
28,"O=C1CCC(N2C(=O)c3cccc4c(Cc5ccc(CN6CCCOCC6)cc5)ccc2c34)C(=O)N1 (stereo not drawn) [Compound 123, 3-(6-(4-((1,4-oxazepan-4-yl)methyl)benzyl)-2-oxobenzo[cd]indol-1(2H)-yl)piperidine-2,6-dione]",< 1
29,"COC(=O)c1ccc2c3c(cccc13)C(=O)N2C1CCC(=O)NC1=O (stereo not drawn) [Compound 124, methyl 1-(2,6-dioxo-3-piperidyl)-2-oxo-benzo[cd]indole-6-carboxylate]",> 999
30,"CC1(C(=O)N2CCC(c3cn(Cc4ccc5c6c(cccc46)C(=O)N5C4CCC(=O)NC4=O)nn3)CC2)CCC1 (stereo not drawn) [Compound 125, 3-[6-[[4-[1-(1-methylcyclobutanecarbonyl)-4-piperidyl]triazol-1-yl]methyl]-2-oxo-benzo[cd]indol-1-yl]piperidine-2,6-dione]",< 1

# Reference: patent publication US20230082430A1 (C4 Therapeutics, Inc., priority 2019, published 2023)
